Experiments:
[1] = tested on: SNB-75; assay: NCI one-dose screening, CNS cancer SNB-75; type: cell-based, human; settings: 10 μM
[2] = tested on: MALME-3M; assay: NCI one-dose screening, melanoma MALME-3M; type: cell-based, human; settings: 10 μM
[3] = tested on: PC-3 prostate cancer cell line; assay: SRB assay cell viability, PC-3 prostate cancer cell line; type: cell-based, human; settings: Homo sapiens, PC-3 prostate cancer cell line, Table II prints no unit, μM printed, read-out: SRB assay: 50% inhibition of cancer cell proliferation of sample concentration (IC50) of PC-3 prostate cancer cell line
[4] = tested on: CAKI-1; assay: NCI one-dose screening, renal cancer CAKI-1; type: cell-based, human; settings: 10 μM
[5] = tested on: OVCAR-8; assay: NCI one-dose screening, ovarian cancer OVCAR-8; type: cell-based, human; settings: 10 μM
[6] = tested on: IGROV1; assay: NCI one-dose screening, ovarian cancer IGROV1; type: cell-based, human; settings: 10 μM
[7] = tested on: TK-10; assay: NCI one-dose screening, renal cancer TK-10; type: cell-based, human; settings: 10 μM
[8] = tested on: BT-549; assay: NCI one-dose screening, breast cancer BT-549; type: cell-based, human; settings: 10 μM
[9] = tested on: COLO 205; assay: NCI one-dose screening, colon cancer COLO 205; type: cell-based, human; settings: 10 μM
[10] = tested on: SK-MEL-5; assay: NCI one-dose screening, melanoma SK-MEL-5; type: cell-based, human; settings: 10 μM
[11] = tested on: SN12C; assay: NCI one-dose screening, renal cancer SN12C; type: cell-based, human; settings: 10 μM
[12] = tested on: human tumor cell lines; assay: NCI one-dose screening, Mean / Delta / Range of growth percent over all tested cell lines; type: cell-based; settings: 10 μM; for Growth Percent Delta: delta over all cell lines; for Growth Percent Mean: mean over all cell lines; for Growth Percent Range: range over all cell lines
[13] = tested on: EKVX; assay: NCI one-dose screening, non-small cell lung cancer EKVX; type: cell-based, human; settings: 10 μM
[14] = tested on: U251; assay: NCI one-dose screening, CNS cancer U251; type: cell-based, human; settings: 10 μM
[15] = tested on: RXF, 393; assay: NCI one-dose screening, renal cancer RXF, 393; type: cell-based, human; settings: 10 μM
[16] = tested on: 786-O; assay: NCI one-dose screening, renal cancer 786-O; type: cell-based, human; settings: 10 μM
[17] = tested on: HCC-2998; assay: NCI one-dose screening, colon cancer HCC-2998; type: cell-based, human; settings: 10 μM
[18] = tested on: MCF7; assay: NCI one-dose screening, breast cancer MCF7; type: cell-based, human; settings: 10 μM
[19] = tested on: HT29; assay: NCI one-dose screening, colon cancer HT29; type: cell-based, human; settings: 10 μM
[20] = tested on: MDA-MB-231/ATCC; assay: NCI one-dose screening, breast cancer MDA-MB-231/ATCC; type: cell-based, human; settings: 10 μM
[21] = tested on: NCI-H226; assay: NCI one-dose screening, non-small cell lung cancer NCI-H226; type: cell-based, human; settings: 10 μM
[22] = tested on: NCI-H23; assay: NCI one-dose screening, non-small cell lung cancer NCI-H23; type: cell-based, human; settings: 10 μM
[23] = tested on: ACHN; assay: NCI one-dose screening, renal cancer ACHN; type: cell-based, human; settings: 10 μM
[24] = tested on: NCl/ADR-RES; assay: NCI one-dose screening, breast cancer NCl/ADR-RES; type: cell-based, human; settings: 10 μM; listed under Ovarian cancer
[25] = tested on: UACC-257; assay: NCI one-dose screening, melanoma UACC-257; type: cell-based, human; settings: 10 μM
[26] = tested on: HCT-116; assay: NCI one-dose screening, colon cancer HCT-116; type: cell-based, human; settings: 10 μM
[27] = tested on: SF-539; assay: NCI one-dose screening, CNS cancer SF-539; type: cell-based, human; settings: 10 μM
[28] = tested on: A549/ATCC; assay: NCI one-dose screening, non-small cell lung cancer A549/ATCC; type: cell-based, human; settings: 10 μM
[29] = tested on: MDA, -MB-435; assay: NCI one-dose screening, breast cancer MDA, -MB-435; type: cell-based, human; settings: 10 μM; listed under Melanoma
[30] = tested on: HOP-62; assay: NCI one-dose screening, non-small cell lung cancer HOP-62; type: cell-based, human; settings: 10 μM
[31] = tested on: OVCAR-5; assay: NCI one-dose screening, ovarian cancer OVCAR-5; type: cell-based, human; settings: 10 μM
[32] = tested on: SK-MEL-2; assay: NCI one-dose screening, melanoma SK-MEL-2; type: cell-based, human; settings: 10 μM
[33] = tested on: SNB-19; assay: NCI one-dose screening, CNS cancer SNB-19; type: cell-based, human; settings: 10 μM
[34] = tested on: UACC-62; assay: NCI one-dose screening, melanoma UACC-62; type: cell-based, human; settings: 10 μM
[35] = tested on: SK-MEL-28; assay: NCI one-dose screening, melanoma SK-MEL-28; type: cell-based, human; settings: 10 μM
[36] = tested on: NCI-H522; assay: NCI one-dose screening, non-small cell lung cancer NCI-H522; type: cell-based, human; settings: 10 μM
[37] = tested on: LOX IMVI; assay: NCI one-dose screening, melanoma LOX IMVI; type: cell-based, human; settings: 10 μM
[38] = tested on: MDA-MB-468; assay: NCI one-dose screening, breast cancer MDA-MB-468; type: cell-based, human; settings: 10 μM
[39] = tested on: UO-31; assay: NCI one-dose screening, renal cancer UO-31; type: cell-based, human; settings: 10 μM
[40] = tested on: SK-OV-3; assay: NCI one-dose screening, ovarian cancer SK-OV-3; type: cell-based, human; settings: 10 μM
[41] = tested on: HCT-15; assay: NCI one-dose screening, colon cancer HCT-15; type: cell-based, human; settings: 10 μM
[42] = tested on: M14; assay: NCI one-dose screening, melanoma M14; type: cell-based, human; settings: 10 μM
[43] = tested on: T-47D; assay: NCI one-dose screening, breast cancer T-47D; type: cell-based, human; settings: 10 μM

O=C1c2ccccc2C(=O)c2c1cc(Sc1cccc(Cl)c1)c1nsnc21 [C37, 4-(3-chlorophenyl-thio)anthra[2,1-c][1,2,5] thiadiazol-6,11-dione]
Growth Percent SNB-75 [1]: 26.08%
Growth Percent MALME-3M [2]: −86.56%
IC50 [3]: 5.64 µM
Growth Percent CAKI-1 [4]: −3.69%
Growth Percent OVCAR-8 [5]: −22.92%
Growth Percent IGROV1 [6]: −13.50%
Growth Percent TK-10 [7]: 53.81%
Growth Percent BT-549 [8]: 36.21%
Growth Percent COLO 205 [9]: 105.98%
Growth Percent SK-MEL-5 [10]: 19.02%
Growth Percent SN12C [11]: −66.17%
Growth Percent Delta [12]: 86.78%
Growth Percent Mean [12]: −5.75%
Growth Percent Range [12]: 201.08%
Growth Percent EKVX [13]: 43.65%
Growth Percent U251 [14]: −69.50%
Growth Percent RXF 393 [15]: −27.84%
Growth Percent 786-0 [16]: −2.06%
Growth Percent HCC-2998 [17]: 101.66%
Growth Percent MCF7 [18]: −69.36%
Growth Percent HT29 [19]: 102.17%
Growth Percent MDA-MB-231/ATCC [20]: −29.08%
Growth Percent NCI-H226 [21]: 78.07%
Growth Percent NCI-H23 [22]: −26.91%
Growth Percent ACHN [23]: −92.53%
Growth Percent NCI/ADR-RES [24]: −15.13%
Growth Percent UACC-257 [25]: −84.59%
Growth Percent HCT-116 [26]: −67.84%
Growth Percent SF-539 [27]: −52.72%
Growth Percent A549/ATCC [28]: 107.48%
Growth Percent MDA-MB-435 [29]: −82.33%
Growth Percent HOP-62 [30]: 42.12%
Growth Percent OVCAR-5 [31]: 108.55%
Growth Percent SK-MEL-2 [32]: −53.17%
Growth Percent SNB-19 [33]: 56.88%
Growth Percent UACC-62 [34]: −64.98%
Growth Percent SK-MEL-28 [35]: 24.96%
Growth Percent NCI-H522 [36]: 7.18%
Growth Percent LOX IMVI [37]: −59.25%
Growth Percent MDA-MB-468 [38]: −79.19%
Growth Percent UO-31 [39]: −74.79%
Growth Percent SK-OV-3 [40]: 95.44%
Growth Percent HCT-15 [41]: 17.97%
Growth Percent M14 [42]: −76.44%
Growth Percent T-47D [43]: −42.26%

CCOc1cccc(Sc2cc3c(c4nsnc24)C(=O)c2ccccc2C3=O)c1 [C50, 4-(3-ethoxy-phenylthio)anthra[2,1-c] [1,2,5]thiadiazol-6,11-dione]
Growth Percent SNB-75 [1]: 77.25%
Growth Percent MALME-3M [2]: 108.70%
IC50 [3]: > 15 µM
Growth Percent CAKI-1 [4]: 84.23%
Growth Percent OVCAR-8 [5]: 112.41%
Growth Percent IGROV1 [6]: 94.67%
Growth Percent TK-10 [7]: 125.26%
Growth Percent BT-549 [8]: 103.88%
Growth Percent COLO 205 [9]: 106.49%
Growth Percent SK-MEL-5 [10]: 106.82%
Growth Percent SN12C [11]: 104.76%
Growth Percent Delta [12]: 25.00%
Growth Percent Mean [12]: 101.69%
Growth Percent Range [12]: 49.59%
Growth Percent EKVX [13]: 102.26%
Growth Percent U251 [14]: 109.69%
Growth Percent RXF 393 [15]: 118.35%
Growth Percent 786-0 [16]: 100.25%
Growth Percent HCC-2998 [17]: 105.49%
Growth Percent MCF7 [18]: 78.81%
Growth Percent HT29 [19]: 106.40%
Growth Percent MDA-MB-231/ATCC [20]: 100.81%
Growth Percent NCI-H226 [21]: 90.47%
Growth Percent NCI-H23 [22]: 94.07%
Growth Percent ACHN [23]: 103.33%
Growth Percent NCI/ADR-RES [24]: 101.92%
Growth Percent UACC-257 [25]: 126.28%
Growth Percent HCT-116 [26]: 100.93%
Growth Percent SF-539 [27]: 93.72%
Growth Percent A549/ATCC [28]: 111.48%
Growth Percent MDA-MB-435 [29]: 106.07%
Growth Percent HOP-62 [30]: 91.94%
Growth Percent OVCAR-5 [31]: 116.60%
Growth Percent SK-MEL-2 [32]: 102.98%
Growth Percent SNB-19 [33]: 103.22%
Growth Percent UACC-62 [34]: 108.85%
Growth Percent SK-MEL-28 [35]: 112.20%
Growth Percent NCI-H522 [36]: 98.19%
Growth Percent LOX IMVI [37]: 84.11%
Growth Percent MDA-MB-468 [38]: 108.00%
Growth Percent UO-31 [39]: 76.69%
Growth Percent SK-OV-3 [40]: 99.36%
Growth Percent HCT-15 [41]: 103.08%
Growth Percent M14 [42]: 103.80%
Growth Percent T-47D [43]: 86.51%

From US8877748B2, “Heterocyclic fused anthraquinone derivatives, manufacturing method and pharmaceutical composition using thereof” (National Defense Medical Center, priority 2012, dated 2014)
